Test results reported in US7601331B2, “NIR-sensitive nanoparticle” (National University of Singapore, priority 2004, dated 2009).

Experiments:
[1] = Thermogravimetric analysis (TGA) of freeze-dried surface-modified particles; type: physicochemical; details: for Decomposition Temp.: TGA in helium, surfactant on NIR-sensitive nanoparticles; for Ave. Absorbed (amount of ligand adsorbed): TGA of freeze-dried particles
Procedure: Thermogravimetric analysis (TGA) was conducted in helium using a Perkin-Elmer series 7 Thermal Analysis system at a ramp rate of 4° C./min from 30° C. to 900° C.

[2] = Procedure: Anti-cancer drugs and other biomolecules can be loaded onto the NIR-sensitive nanoparticles by coating the particles with surfactants. […] The insolubility of MUA in water necessitated the chemisorption of MUA in absolute ethanol. NIR-sensitive nanoparticles (colloids) were separated from the aqueous reaction mixture by centrifugation, and dispersed in 100 mM MUA in absolute ethanol. The nanoparticles (colloids) were dispersed in these surfactant solutions for 3 days, an estimated time for chemisorption to reach equilibrium.

Row | Decomposition Temp. [1] | Ave. Absorbed (amount of ligand adsorbed) [1] | solubility in water [2] | SMILES
1 | ~150 °C | 0.14 ± 0.01 nmol/mg |  | O=C(O)CS [MAA, mercaptoacetic acid]
2 | ~200 °C | 0.10 ± 0.03 nmol/mg | insolubility | O=C(O)CCCCCCCCCCS [MUA, mercaptoundecanoic acid]
